ChEMBL document CHEMBL2021832, “On the search for potential anti-Trypanosoma cruzi drugs: synthesis and biological evaluation of 2-hydroxy-3-methylamino and 1,2,3-triazolic naphthoquinoidal compounds obtained by click chemistry reactions” (Eur J Med Chem, 2012)
Activity calls are given as the source filed them. The calls are words filed in the database; no cut-off is given here.

Columns and labels:
Biomphalaria glabrata = assay: Molluscicidal activity against Biomphalaria glabrata; assay type: functional, organism-based
Trypanosoma cruzi [1] = assay: Trypanocidal activity against bloodstream form of Trypanosoma cruzi Y isolated from albino mouse blood after 24 hrs by neubauer chamber analysis; assay type: functional, organism-based
Trypanosoma cruzi [2] = assay: Ratio of benznidazole IC50 to compound IC50 for bloodstream form of Trypanosoma cruzi Y; assay type: functional
[3] = Cytotoxicity against mouse embryo HMC after 24 hrs by Alamar blue assay; conditions: mouse embryo HMC cells, read-out: LC50
[4] = Selectivity index, ratio of LC50 for mouse embryo HMC to IC50 for bloodstream form of Trypanosoma cruzi Y

Row | SMILES | IC50 (Trypanosoma cruzi [1]) [µM] | other results
1 | O=C1C(O)=C(CN2CC3CCC2CC3)C(=O)c2ccccc21 | 397 | Activity (Biomphalaria glabrata): Active
2 | O=C1C=C(n2cc(-c3ccc(Br)cc3)nn2)C(=O)c2ccccc21 | 492 | –
3 | CCCN(CCC)CC1=C(O)C(=O)c2ccccc2C1=O | 206 | Activity (Biomphalaria glabrata): Active
4 | CC(C)=CCC1=C(OS(=O)(=O)c2ccc(C)cc2)C(=O)c2ccccc2C1=O | 158 | –
5 | Cc1ccc(-c2cn(C3=CC(=O)c4ccccc4C3=O)nn2)cc1 | 113 | –
6 | [N-]=[N+]=NC1=C(Cl)C(=O)c2ccccc2C1=O | 51.8 | Ratio IC50 (Trypanosoma cruzi [2]): 2
7 | O=C1C=C(Cl)C(=O)c2ccccc21 | 12.3 | CC50 at 24 h [3]: 41.3 µM; Ratio LC50/IC50 [4]: 3.6
8 | O=C1C(Cl)=C(n2cc(-c3ccccc3)nn2)C(=O)c2ccccc21 | 42 | –
9 | COc1ccc(-c2cn(C3=CC(=O)c4ccccc4C3=O)nn2)cc1 | 45.8 | –
10 | O=C1C=C(n2cc(-c3ccccc3)nn2)C(=O)c2ccccc21 | 10.9 | Ratio IC50 (Trypanosoma cruzi [2]): 9.5; CC50 at 24 h [3]: 206 µM; Ratio LC50/IC50 [4]: 18.9
11 | CC1(C)OC2=C(C(=O)C(=O)c3ccccc32)C1n1cc(-c2ccc([N+](=O)[O-])cc2)nn1 (stereo not given) | 21.8 | Ratio IC50 (Trypanosoma cruzi [2]): 2.5
12 | Cc1ccc(-c2cn(C3C4=C(OC3(C)C)c3ccccc3C(=O)C4=O)nn2)cc1 (stereo not given) | 39.6 | Ratio IC50 (Trypanosoma cruzi [2]): 2.5
13 | CC(C)(O)c1cn(C2=CC(=O)c3ccccc3C2=O)nn1 | 80.2 | –
14 | CCOC(=O)c1cn(C2=CC(=O)c3ccccc3C2=O)nn1 | 67.6 | –
15 | O=C1C(O)=C(CNC2CCCC2)C(=O)c2ccccc21 | 361 | Activity (Biomphalaria glabrata): Active
16 | COc1ccc(-c2cn(C3C4=C(OC3(C)C)c3ccccc3C(=O)C4=O)nn2)cc1 (stereo not given) | 359 | –
17 | O=C1C=C(n2cc(-c3ccc([N+](=O)[O-])cc3)nn2)C(=O)c2ccccc21 | 2010 | –
18 | CC1(C)OC2=C(C(=O)C(=O)c3ccccc32)C1n1cc(-c2ccc(F)cc2)nn1 (stereo not given) | 20.8 | Ratio IC50 (Trypanosoma cruzi [2]): 2.5
19 | O=C1C=C(O)C(=O)c2ccccc21 [LAWSONE] | > 2500 | –
20 | CC(C)=CCC1=C(OS(C)(=O)=O)C(=O)c2ccccc2C1=O | 25.7 | CC50 at 24 h [3]: 16.7 µM; Ratio LC50/IC50 [4]: 0.6
21 | O=C1C(O)=C(CN2CCCC2)C(=O)c2ccccc21 | 396 | Activity (Biomphalaria glabrata): Active
22 | CC1(C)OC2=C(C(=O)C(=O)c3ccccc32)C1n1cc(-c2ccc(Br)cc2)nn1 (stereo not given) | 102 | –
23 | CC1(C)CC2=C(O1)c1ccccc1C(=O)C2=O [NOR-BETA-LAPACHONE] | > 4800 | –
24 | O=C1C=C(n2cc(CO)nn2)C(=O)c2ccccc21 | 17.7 | Ratio IC50 (Trypanosoma cruzi [2]): 5.8; CC50 at 24 h [3]: 107 µM; Ratio LC50/IC50 [4]: 6.1
25 | [N-]=[N+]=NC1=CC(=O)c2ccccc2C1=O | 41.6 | –
26 | CC(C)(CO)NCC1=C(O)C(=O)c2ccccc2C1=O | 370 | Activity (Biomphalaria glabrata): Active
